Experimental data from PubChem BioAssay (NCI).
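Cultured in 96-well plates, cells were exposed to test compound for 48 hours across five concentrations. TGI: concentration producing complete growth inhibition.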

Legend:
Assay in all cases: NCI-60 cell line screen, 48 h
HT29 colon = tested on: HT29 colon
SN12C renal = tested on: SN12C renal
TK-10 renal = tested on: TK-10 renal
CAKI-1 renal = tested on: CAKI-1 renal
786-0 renal = tested on: 786-0 renal
SF-539 CNS = tested on: SF-539 CNS
K-562 leukemia = tested on: K-562 leukemia
HCT-116 colon = tested on: HCT-116 colon
IGROV1 ovarian = tested on: IGROV1 ovarian
EKVX NSCLC = tested on: EKVX NSCLC
A549 NSCLC = tested on: A549 NSCLC
NCI-H460 lung = tested on: NCI-H460 lung
MDA-MB-231 breast = tested on: MDA-MB-231 breast
LOX IMVI melanoma = tested on: LOX IMVI melanoma
DU-145 prostate = tested on: DU-145 prostate

SMILES	TGI (HT29 colon) [µM]	TGI (SN12C renal) [µM]	TGI (TK-10 renal) [µM]	TGI (CAKI-1 renal) [µM]	TGI (786-0 renal) [µM]	TGI (SF-539 CNS) [µM]	TGI (K-562 leukemia) [µM]	TGI (HCT-116 colon) [µM]	TGI (IGROV1 ovarian) [µM]	TGI (EKVX NSCLC) [µM]	TGI (A549 NSCLC) [µM]	TGI (NCI-H460 lung) [µM]	TGI (MDA-MB-231 breast) [µM]	TGI (LOX IMVI melanoma) [µM]	TGI (DU-145 prostate) [µM]
CC1(Cl)CC(C)(/C=C/Cl)C(Cl)CC1Cl (stereo not drawn)	27.3	31	76.7	33.3	29.1	34.4	57	30	30.4	26.4	31.1	28.7			
COC(=O)C(=O)C(C(=O)C(=O)Nc1ccc(C)c(C)c1)c1nc2ccc([N+](=O)[O-])cc2[nH]c1=O (stereo not drawn)	> 100	> 100	> 100	> 100	> 100	> 100	> 100	> 100	> 100	> 100	> 100	> 100	> 100	> 100	
O=C1/C(=C/c2ccc(Cl)cc2)Oc2ccccc21	> 100	> 100	64.3	12.6	29.7	48.8	> 100	> 100		46.1	35	> 100	> 100		40.3
O=C(/C(=C/c1ccc(O)cc1)c1ccccc1)c1ccccc1	32.1	32.5	48.5	38.2	34.5	30.3	44.4	31.5	38.3	45.8	41.7	38.4		25.9	
CCCCCCCCCCCCC1N=C(N)NC2(CCCO2)C1C(=O)OC (stereo not drawn)	3.48	34.2	15.5	30.6	16.9	15.8	5.25	7.32	6.72	36.6	30.9	8.23	13.3		33.2
CC(C)(CN1CCCCC1)C(=O)CC(SCCS(=O)(=O)O)c1ccc(Cl)cc1 (stereo not drawn)	12.6	15.8	18.9	18.3	8.91	4.66	9.91	13.6	20.4	11.8	23.5	25.2	6.61		21.7
Cc1ccccc1Nc1nc2ccccc2nc1NS(=O)(=O)c1ccccc1	> 100	> 100	> 100	> 100	> 100	> 100	> 100	> 100	> 100	> 100	> 100	> 100	> 100	> 100	
C=CCOC(=O)N1c2ccc(O)cc2[C@@]23O[C@@]24[C@@H]1C#C/C=C\C#C[C@]3(O)C(=O)C[C@@H]4C	> 100	> 100	> 100	> 100	> 100	> 100	> 100	> 100	> 100	> 100	> 100	> 100	> 100		> 100
